Laboratory results reported in patent US20250230165A1, “HETEROCYCLIC COMPOUNDS FOR USE IN THE TREATMENT OF CANCER” (ARTIOS PHARMA LIMITED, priority 2021, published 2025).
Where a name gives a salt, the structure may show the parent alone.

Target: T1, Human Polθ polymerase domain (aa1820-2590) (Homo sapiens, UniProt O75417)
T1 construct: Human Polθ polymerase domain (aa1820-2590) was expressed in E. coli; made in house; host or cells: E. coli
T1 sequence (O75417 1820-2590): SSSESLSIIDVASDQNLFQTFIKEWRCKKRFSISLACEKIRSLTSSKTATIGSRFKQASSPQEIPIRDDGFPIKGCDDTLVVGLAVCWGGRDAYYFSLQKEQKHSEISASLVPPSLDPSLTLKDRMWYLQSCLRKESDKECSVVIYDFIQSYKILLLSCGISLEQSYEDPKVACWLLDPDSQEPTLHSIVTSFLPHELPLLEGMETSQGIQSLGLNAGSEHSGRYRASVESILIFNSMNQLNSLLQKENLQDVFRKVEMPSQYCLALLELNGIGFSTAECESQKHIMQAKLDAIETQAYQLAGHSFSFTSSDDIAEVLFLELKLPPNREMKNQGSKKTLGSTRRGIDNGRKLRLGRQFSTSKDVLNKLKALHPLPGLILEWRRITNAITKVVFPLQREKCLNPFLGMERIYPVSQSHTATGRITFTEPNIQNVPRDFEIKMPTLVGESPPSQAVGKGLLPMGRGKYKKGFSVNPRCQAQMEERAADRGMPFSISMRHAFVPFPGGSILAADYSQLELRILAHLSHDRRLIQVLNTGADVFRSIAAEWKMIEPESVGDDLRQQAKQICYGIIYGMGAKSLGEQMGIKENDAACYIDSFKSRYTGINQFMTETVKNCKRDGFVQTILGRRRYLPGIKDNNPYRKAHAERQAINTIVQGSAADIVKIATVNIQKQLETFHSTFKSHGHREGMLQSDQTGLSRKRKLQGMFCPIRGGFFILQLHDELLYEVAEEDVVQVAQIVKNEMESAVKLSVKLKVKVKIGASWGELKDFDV
Assay: Polθ Polymerase Domain Kinact/KI Assay (PicoGreen)
Type: biochemical
Details: 0.8 nM Polθ, 100 nM DNA substrate, kobs vs [I] fit for 2-step covalent inhibitor
How it was run: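 PicoGreen fluorescence read-out of primer extension; progress curves per inhibitor concentration fitted for kobs, then kobs vs [I] fitted to a two-step covalent model to give Kinact and KI. Conditions: 0.8 nM enzyme, 100 nM DNA substrate, […].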

SMILES | Kinact/Kl
Cc1cc(C(F)(F)F)cc(N2C(=O)C[C@@H]3CN(CC45CC(CNC(=O)/C=C/CN(C)C)(C4)C5)c4c(C)cccc4N(C)C(=O)[C@H]32)n1 [Example 179, (E)-N-((3-(((3aR, 11aS)-6,10-dimeth-yl-1-(6-methyl-4-(trifluoromethyl)-pyridin-2-yl)-2,11-dioxo-1,2,3,3a,4, 10,11,11a-octa-hydro-5H-benzo [b]pyrrolo[2,3-f] [1,4]diazocin-5-yl)methyl)bicyclo [1.1.1]pentan-1-yl)methyl)-4-(dimethylamino)-but-2-enamide] | 670000 M⁻¹ s⁻¹
C=CC(=O)N1Cc2cc(CN3C[C@H]4CC(=O)N(c5cc(C(F)(F)F)cc(C)n5)[C@@H]4C(=O)N(C)c4cccc(Cl)c43)cnc2C1CC#N (single isomer, unassigned) [Example 292b] | 2.52e+06 M⁻¹ s⁻¹
C=CC(=O)N1Cc2ncc(CN3C[C@H]4CC(=O)N(c5cc(C(F)(F)F)cc(C)n5)[C@@H]4C(=O)N(C)c4cccc(Cl)c43)nc2C1 [Example 229, (3aR,11aS)-5-((6-acryloyl-6,7-dihydro-5H-pyrrolo[3,4-b]pyrazin-2-yl)methyl)-6-chloro-10-methyl-1-(6-methyl-4-(trifluoromethyl)pyridin-2-yl)-1,3a,4,5,10,11a-hexahydro-2H-benzo[b]pyrrolo[2,3-f][1,4]diazocine-2,11(3H)-dione] | 730000 M⁻¹ s⁻¹
C=CC(=O)N1CC(N2CCC(CN3C[C@H]4CC(=O)N(c5cc(C(F)(F)F)cc(C)n5)[C@@H]4C(=O)N(C)c4cccc(F)c43)CC2)C1 [Example 212, (3aR,11aS)-5-((1-(1-acryloylazetidin-3-yl)piperidin-4-yl)methyl)-6-fluoro-10-methyl-1-(6-methyl-4-(trifluoromethyl)pyridin-2-yl)-1,3a,4,5,10,11a-hexahydro-2H-benzo[b]pyrrolo [2,3-f][1,4] diazocine-2,11 (3H)-dione] | 1.81e+06 M⁻¹ s⁻¹
C=CC(=O)N1CC(N(C)CCCN2C[C@H]3CC(=O)N(c4cc(C(F)(F)F)cc(C)n4)[C@@H]3C(=O)N(C)c3cccc(Cl)c32)C1 [Example 138, (3aR,11aS)-5-(3-((1-acryloylazetidin-3-yl)(methyl)amino)propyl)-6-chloro-10-methyl-1-(6-methyl-4-(trifluoromethyl)pyridin-2-yl)-1,3a,4,5,10,11a-hexahydro-2H-benzo[b]pyrrolo[2,3-f][1,4]diazocine-2,11(3H)-dione] | 1.08e+06 M⁻¹ s⁻¹
C=CC(=O)N1Cc2ncc(CN3C[C@H]4CC(=O)N(c5cc(C(F)(F)F)cc(C)n5)[C@@H]4C(=O)N(C)c4cccc(C)c43)nc2C1 [Example 228, (3aR,11aS)-5-((6-acryloyl-6,7-dihydro-5H-pyrrolo[3,4-b]pyrazin-2-yl)methyl)-6,10-dimethyl-1-(6-methyl-4-(trifluoromethyl)pyridin-2-yl)-1,3a,4,5,10,11a-hexahydro-2H-benzo[b]pyrrolo[2,3-f][1,4]diazocine-2,11(3H)-dione] | 2.26e+06 M⁻¹ s⁻¹
Cc1cc(C(F)(F)F)cc(N2C(=O)C[C@@H]3CN(CCN4CCOC5(C4)CN(C(=O)/C=C/CN(C)C)C5)c4c(F)cccc4N(C)C(=O)[C@H]32)n1 [Example 27, (3aR,11aS)-5-(2-(2-((E)-4-(dimethylamino)but-2-enoyl)-5-oxa-2,8-diazaspiro[3.5]nonan-8-yl)ethyl)-6-fluoro-10-methyl-1-(6-methyl-4-(trifluoromethyl)pyridin-2-yl)-1,3a,4,5,10,11a-hexahydro-2H-benzo[b]pyrrolo[2,3-f][1,4]diazocine-2,11(3H)-dione Hydrochloride] | 1.05e+06 M⁻¹ s⁻¹
C=C(CN(C)C)C(=O)N1CC(F)(COCCN2C[C@H]3CC(=O)N(c4cc(C(F)(F)F)cc(C)n4)[C@@H]3C(=O)N(C)c3cccc(Cl)c32)C1 [Example 305, (3aR,11aS)-6-chloro-5-(2-((1-(2-((dimethylamino)methyl)acryloyl)-3-fluoroazetidin-3-yl)methoxy)ethyl)-10-methyl-1-(6-methyl-4-(trifluoromethyl)pyridin-2-yl)-1,3a,4,5,10,11a-hexahydro-2H-benzo[b]pyrrolo[2,3-f][1,4]diazocine-2,11(3H)-dione] | 1.82e+06 M⁻¹ s⁻¹
C=CC(=O)N1CC(c2nc(CN3C[C@H]4CC(=O)N(c5cc(C(F)(F)F)cc(C)n5)[C@@H]4C(=O)N(C)c4cccc(F)c43)n(C)n2)C1 [Example 99, (3aR,11aS)-5-((3-(1-acryloylazetidin-3-yl)-1-methyl-1H-1,2,4-triazol-5-yl)methyl)-6-fluoro-10-methyl-1-(6-methyl-4-(trifluoromethyl)pyridin-2-yl)-1,3a,4,5,10,11a-hexahydro-2H-benzo[b]pyrrolo[2,3-f][1,4]diazocine-2,11(3H)-dione] | 170000 M⁻¹ s⁻¹
Cc1cc(C(F)(F)F)cc(N2C(=O)C[C@@H]3CN(Cc4ccc5c(c4)CN(C(=O)/C(Cl)=C/CN(C)C)C5)c4c(C)cccc4N(C)C(=O)[C@H]32)n1 [Example 255, (3aR,11aS)-5-((2-((Z)-2-chloro-4-(dimethylamino)but-2-enoyl)isoindolin-5-yl)methyl)-6,10-dimethyl-1-(6-methyl-4-(trifluoromethyl)pyridin-2-yl)-1,3a,4,5,10,11a-hexahydro-2H-benzo[b]pyrrolo[2,3-f][1,4]diazocine-2,11(3H)-dione] | 980000 M⁻¹ s⁻¹
C=CC(=O)N1CC2(CN(CCN3C[C@H]4CC(=O)N(c5cc(C(F)(F)F)cc(C)n5)[C@@H]4C(=O)N(C)c4cccc(Cl)c43)CC2C#N)C1 (single isomer, unassigned) [Example 117a] | 1.89e+06 M⁻¹ s⁻¹
C=CC(=O)N1CCn2c(nc(CN3C[C@H]4CC(=O)N(c5cc(C(F)(F)F)cc(C)n5)[C@@H]4C(=O)N(C)c4cccc(C)c43)c2C)C1 [Example 74, (3aR,11aS)-5-((7-acryloyl-3-methyl-5,6,7,8-tetrahydroimidazo[1,2-a]pyrazin-2-yl)methyl)-6,10-dimethyl-1-(6-methyl-4-(trifluoromethyl)pyridin-2-yl)-1,3a,4,5,10,11a-hexahydro-2H-benzo[b]pyrrolo[2,3-f][1,4]diazocine-2,11(3H)-dione] | 5.83e+06 M⁻¹ s⁻¹
C=CC(=O)N1C[C@@H]2CN(CCN3C[C@H]4CC(=O)N(c5cc(C(F)(F)F)cc(C)n5)[C@@H]4C(=O)N(C)c4cccc(F)c43)CCN2C[C@@H]1C (single isomer, unassigned) [Example 9] | 600000 M⁻¹ s⁻¹
C=CC(=O)N1Cc2nc(CN3C[C@H]4CC(=O)N(c5cc(C(F)(F)F)cc(C)n5)[C@@H]4C(=O)N(C)c4cccc(C)c43)cn2C[C@@H]1C(F)(F)F (racemic) [Example 322b, (3aR,11aS)-5-(((R/S)-7-acryloyl-6-(trifluoromethyl)-5,6,7,8-tetrahydro-imidazo[1,2-a]pyr-azin-2-yl)methyl)-6,10-dimethyl-1-(6-methyl-4-(trifluoro-methyl)pyridin-2-yl)-1,3a,4,5,10,11a-hexahydro-2H-benzo[b]pyrrolo[2,3-f][1,4]diazocine-2,11(3H)-dione] | 1.13e+06 M⁻¹ s⁻¹
C=CC(=O)N1CC(N2CC[C@H](CN3C[C@H]4CC(=O)N(c5cc(C(F)(F)F)cc(C)n5)[C@@H]4C(=O)N(C)c4cccc(Cl)c43)[C@@H](C#N)C2)C1 (single isomer, unassigned) [Example 226b] | 870000 M⁻¹ s⁻¹
Cc1cc(C(F)(F)F)cc(N2C(=O)C[C@@H]3CN(Cc4ccc5c(c4)OCCN5C(=O)/C=C/CN(C)C)c4c(Cl)cccc4N(C)C(=O)[C@H]32)n1 [Example 308, (3aR,11aS)-6-chloro-5-((4-((E)-4-(dimethylamino)but-2-enoyl)-3,4-dihydro-2H-benzo[b][1,4]oxazin-7-yl)methyl)-10-methyl-1-(6-methyl-4-(trifluoromethyl)pyridin-2-yl)-1,3a,4,5,10,11a-hexahydro-2H-benzo[b]pyrrolo[2,3-f][1,4]diazocine-2,11(3H)-dione] | 280000 M⁻¹ s⁻¹
C=CC(=O)N1Cc2nc(CN3C[C@H]4CC(=O)N(c5cc(C(F)(F)F)cc(C)n5)[C@@H]4C(=O)N(C)c4cccc(Cl)c43)cn2CC1CO (stereo partly drawn) [Example 244, (3aR,11aS)-5-((7-acryloyl-6-(hydroxymethyl)-5,6,7,8-tetrahydroimidazo[1,2-a]pyrazin-2-yl)methyl)-6-chloro-10-methyl-1-(6-methyl-4-(trifluoromethyl)pyridin-2-yl)-1,3a,4,5,10,11a-hexahydro-2H-benzo[b]pyrrolo[2,3-f][1,4]diazocine-2,11(3H)-dione] | 3.83e+06 M⁻¹ s⁻¹
C=CC(=O)N1CC2(C1)C(C)N(CCN1C[C@H]3CC(=O)N(c4cc(C(F)(F)F)cc(C)n4)[C@@H]3C(=O)N(C)c3cccc(F)c31)C[C@H]1COCCN12 (single isomer, unassigned) [Example 7] | 410000 M⁻¹ s⁻¹
